Key:
ASB11 mRNA = test: RT-qPCR analysis of ASB11 mRNA level under ER stress; type: cell-based; details: 293T, MDA-MB157 and MDA-MB468 cells; 16 h; FIG. 3a
Description: FIG. 3. ER stress induces ASB11 transcription through XBP1. (a, b) RT-qPCR analysis of ASB11 mRNA level in 293T cells (a) or 293T cells stably expressing control or XBP1 shRNAs (b) treated with tunicamycin or thapsigargin for 16 h. (c) RT-qPCR analysis of ASB11 mRNA expression in 293T cells transfected with control vector or XBP1s. (d) Schematic representation of the 5′-regulatory region of ASB11 gene, the luciferase reporters and the ChIP primers used in this study. (e, g) Luciferase reporter assay of 293T cells transfected with control or XBP1s expression construct together with the indicated reporter constructs. (f, k) qChIP assays in 293T cells (f) or 293T derivatives (k) treated with 10 μg/ml tunicamycin for 16 h using control IgG or XBP1s antibody for immunoprecipitation and indicated sets of primers for qPCR. […] P values are determined by t-test (a, b right panel, c, e) or 1-way ANOVA with Tukey's post test (b left panel, f, g, i, j, k). **P<0.01; ***P<0.001.
Total mRNA was extracted from cells using TRIZOL reagent (Invitrogen), and equal amounts of RNA were reverse transcribed to cDNA using the iScript™ cDNA Synthesis Kit (Bio-Rad). Quantitative real-time PCR was performed using the Power SYBR Green PCR Master kit (Applied Biosystems). […]

ASB11 = test: Western blot analysis of ASB11 protein expression under ER stress; type: cell-based; details: multiple cell lines; 10 μg/ml tunicamycin or 200 nM thapsigargin, 16 h; FIG. 4a
Description: (§1) FIG. 4. ER stress stimulates BIK ubiquitination and degradation through ASB11 and p97. (a) Western blot analysis of BIK and ASB11 levels in 293T cells treated with 10 μg/ml tunicamycin or 200 nM of thapsigargin for 16 h. (b) Western blot analysis of BIK levels in 293T cells treated with 10 μg/ml tunicamycin for 12 h and then with 50 μg/ml cycloheximide for indicated time periods. The relative amounts of BIK are indicated on the bottom. (c, e) Analysis of endogenous (c) or exogenous (e) BIK ubiquitination in 293T cells (c) or 293T derivatives as in FIG. 2d (e) transfected with indicated constructs and treated with tunicamycin. (d) Western blot analysis of 293T derivatives as in FIG. 2d treated with 10 μg/ml tunicamycin for 16 h. (f) Western blot analysis of BIK levels in 293T derivatives co-treated with 10 μg/ml tunicamycin and MG132 for 16 h. (g) Western blot analysis of BIK expression in 293T cells co-treated with tunicamycin and 10 μM CB-5083 for 16 h. […]
(§2) Cell extraction was performed with RIPA lysis buffer containing 50 mM Tris (pH 8.0), 0.15 M NaCl, 1% NP40, 1% sodium deoxycholate, 0.1% SDS, 1 mM PMSF, 1 µg/ml aprotinin, and 1 µg/ml leupeptin. […] Immunoprecipitation was performed and analyzed as previously described. […] The beads were washed with RIPA lysis buffer and the bound proteins were analyzed by Western blot.

BIK [1] = test: Western blot analysis of BIK levels in 293T cells; type: cell-based; details: multiple cell lines; 10 μg/ml tunicamycin or 200 nM thapsigargin, 16 h; FIG. 4a
Description: FIG. 2. […] (d) Western blot analysis of BIK levels in indicated cells stably expressing control or ASB11 shRNAs.
(§3) Cell extraction was performed with RIPA lysis buffer containing 50 mM Tris (pH 8.0), 0.15 M NaCl, 1% NP40, 1% sodium deoxycholate, 0.1% SDS, 1 mM PMSF, 1 µg/ml aprotinin, and 1 µg/ml leupeptin. Western blot was performed with the standard protocol. For an efficient detection of BIK by Western blot, Tricine-SDS-PAGE was used. Western blot analyses of other proteins were performed with Glycine-SDS-PAGE. Immunoprecipitation was performed and analyzed as previously described. Briefly, cell lysates were incubated with primary antibody for overnight. The Pure Proteome Protein A/G Magnetic Beads (LSKMAGA/G10, EMD Millipore) were then added into cell lysates and incubated for 1.5 h. The beads were washed with RIPA lysis buffer and the bound proteins were analyzed by Western blot.

BIK [2] = test: Analysis of endogenous BIK ubiquitination in 293T cells; type: cell-based; details: FIG. 4c
Description: FIG. 4. ER stress stimulates BIK ubiquitination and degradation through ASB11 and p97. (a) Western blot analysis of BIK and ASB11 levels in 293T cells treated with 10 μg/ml tunicamycin or 200 nM of thapsigargin for 16 h. (b) Western blot analysis of BIK levels in 293T cells treated with 10 μg/ml tunicamycin for 12 h and then with 50 μg/ml cycloheximide for indicated time periods. The relative amounts of BIK are indicated on the bottom. (c, e) Analysis of endogenous (c) or exogenous (e) BIK ubiquitination in 293T cells (c) or 293T derivatives as in FIG. 2d (e) transfected with indicated constructs and treated with tunicamycin. (d) Western blot analysis of 293T derivatives as in FIG. 2d treated with 10 μg/ml tunicamycin for 16 h. (f) Western blot analysis of BIK levels in 293T derivatives co-treated with 10 μg/ml tunicamycin and MG132 for 16 h. (g) Western blot analysis of BIK expression in 293T cells co-treated with tunicamycin and 10 μM CB-5083 for 16 h. (h, i) Western blot analysis of BIK expression in 293T cells stably expressing indicated shRNAs and treated with 10 μg/ml tunicamycin for 16 h. The knockdown efficiency of each shRNA is shown on the right. (j) Immunoprecipitation analysis of p97 interaction with ubiquitinated BIK in 293T cells treated with 10 μg/ml tunicamycin for 16 h. […]

BIK [3] = test: Cycloheximide-chase analysis of BIK turnover in 293T cells; type: cell-based; details: 10 μg/ml tunicamycin 12 h then 50 μg/ml cycloheximide, FIG. 4b
Description: FIG. 4. ER stress stimulates BIK ubiquitination and degradation through ASB11 and p97. (a) Western blot analysis of BIK and ASB11 levels in 293T cells treated with 10 μg/ml tunicamycin or 200 nM of thapsigargin for 16 h. (b) Western blot analysis of BIK levels in 293T cells treated with 10 μg/ml tunicamycin for 12 h and then with 50 μg/ml cycloheximide for indicated time periods. The relative amounts of BIK are indicated on the bottom. (c, e) Analysis of endogenous (c) or exogenous (e) BIK ubiquitination in 293T cells (c) or 293T derivatives as in FIG. 2d (e) transfected with indicated constructs and treated with tunicamycin. (d) Western blot analysis of 293T derivatives as in FIG. 2d treated with 10 μg/ml tunicamycin for 16 h. (f) Western blot analysis of BIK levels in 293T derivatives co-treated with 10 μg/ml tunicamycin and MG132 for 16 h. (g) Western blot analysis of BIK expression in 293T cells co-treated with tunicamycin and 10 μM CB-5083 for 16 h. (h, i) Western blot analysis of BIK expression in 293T cells stably expressing indicated shRNAs and treated with 10 μg/ml tunicamycin for 16 h. The knockdown efficiency of each shRNA is shown on the right. (j) Immunoprecipitation analysis of p97 interaction with ubiquitinated BIK in 293T cells treated with 10 μg/ml tunicamycin for 16 h.

p97 / ubiquitinated BIK = test: Immunoprecipitation analysis of p97 interaction with ubiquitinated BIK; type: cell-based; details: 293T cells, 10 μg/ml tunicamycin, 16 h
Description: as §1, §2

293T cells = test: ELISA assay of cell apoptosis (Cell Death ELISA) in 293T cells; type: cell-based; details: control 293T cells, early time point (12 h) after tunicamycin; FIG. 6e
Description: FIG. 6. Regulation of ASB11-mediated BIK ubiquitination influences on cell life-death decision under ER stress and DNA damage. (a, b) ELISA assay of cell apoptosis (a) and Western blot analysis of active caspase 3 and cleaved PARP (b) in HCT116 p53^+/+ cells stably expressing indicated ASB11 constructs and treated with 3 μg/ml doxorubicin for 24 h. (c, d) ELISA assay of cell apoptosis (c) and Western blot analysis of active caspase 3 and cleaved PARP (d) in HCT116 p53^+/+ cells transiently transfected with ASB11 and/or BIK and treated with 3 μg/ml doxorubicin for 24 h. (e, f) ELISA assay for cell apoptosis (e) and Western blot analysis of active caspase 3 and cleaved PARP (f) in 293T cells stably expressing indicated shRNAs and treated with […] tunicamycin for 12 h. The knockdown efficiencies of various shRNAs are shown on the bottom. (g) Western blot analysis of BIK level in 293T cells transiently transfected with indicated BIK constructs and treated with 10 μg/ml tunicamycin for 24 h. The equal expression of BIK and BIK(2KR) in untreated cells (by adjusting the amount of plasmid used for transfection) is shown. […]
Apoptosis was analyzed as previously described. […] Cells were harvested and DNA fragmentation was measured by Cell Death ELISA Kit (Roche).

BIKDD = BIKDD levels in TNBC cell lines treated with IRE1α inhibitor; type: cell-based; details: TNBC cell lines Hs578T, MDA-MB157 and MDA-MB468
Description: as §3

[4] = test system: TNBC cells (Hs578T, MDA-MB157, MDA-MB468); test: MTT assay for viability of TNBC cells transfected with BIKDD and treated with IRE1α inhibitor; type: cell-based; details: 10 or 100 μM STF-083010, 48 h
Description: (§4) FIG. 7. […] (a, c) MTT assay for the viability of indicated TNBC cells transfected with […] CMV-BIKDD (a) or VISA-BIKDD (c) and treated with 10 or 100 μM STF-083010 for 48 h. CI values are indicated. (b) Western blot analysis of cleaved PARP in indicated TNBC cells transfected with CMV-BIKDD and treated with 100 μM STF-083010 for 36 h. […] Tumor volume were measured at indicated days and plotted. Data are mean±s.d., *P<0.05; ***P<0.001 by two-way ANOVA with Turkey's post test, n=5. Tumors were surgically removed at day 49 and their sizes are shown on the right. (e) Mice orthotopically implanted with Hs578T cells and treated with VISA-BIKDD lipid nanoparticle together with STF-083010 or DMSO starting at day 28 after tumor cell implantation (see Materials and Methods). Tumor volume were measured at indicated days and plotted. Data are mean±s.d., ***P<0.001 by two-way ANOVA with Turkey's post test, n=5. Tumors were surgically removed at day 66 and their sizes are shown on the right.
MDA-MB157 and MDA-MB 468 cells were seeded at a density of 5×10^3 cells and Hs578T cells were at 2×10^3 cells in 96-well plates. Cells were transfected with BIKDD. In the next day, cells were treated with IRE1α inhibitor or DMSO for 48 h and then with 0.4 mg/ml methylthiazolyldiphenyltetrazolium bromide (MTT) (Sigma) for 2 h. Cells were dissolved in DMSO, followed by absorbance measurement at 590 nm. The combination index (CI) was calculated using the equation: CI=CA/IC50A+CB/IC50B. CA and CB represent the concentrations of the two agents for combined treatment. IC50A and IC50B are the IC50 values for each single treatment, which were determined by treating cells with various dosages of each agent followed by MTT assay. (CI<1) indicates a synergistic effect, (CI>1) corresponds to an antagonistic effect, and (CI=1) represents an additive effect.

cleaved PARP = test: Western blot analysis of cleaved PARP in TNBC cells; type: cell-based; details: TNBC cells transfected with CMV-BIKDD, 100 μM STF-083010, 36 h; FIG. 7b
Description: as §4
Cell extraction was performed with RIPA lysis buffer containing 50 mM Tris (pH 8.0), 0.15 M NaCl, 1% NP40, 1% sodium deoxycholate, 0.1% SDS, 1 mM PMSF, 1 µg/ml aprotinin, and 1 µg/ml leupeptin. Western blot was performed with the standard protocol. […] Immunoprecipitation was performed and analyzed as previously described. […] The beads were washed with RIPA lysis buffer and the bound proteins were analyzed by Western blot.

[5] = test system: Hs578T orthotopic breast tumors; test: Orthotopic Hs578T tumor model, cells expressing BIKDD or control vector, treated with STF-083010; type: in vivo, nude mice
Description: (§5) All mice were maintained according to the guidelines of animal ethical regulations, and all animal studies were approved by the Experimental Animal Committee, Academia Sinica. […] Seven days later, DMSO or STF-083010 (40 mg/kg) was intraperitoneally administrated every 3 days. […] Twenty-eight days later, DMSO or STF-083010 (40 mg/kg) was intraperitoneally administrated every 3-4 days. […] For both models, tumors were measured every 3 or 4 days, and their volumes were calculated using the equation: mm^3=[…]×length(mm)×(width(mm))^2.

[6] = test system: Hs578T orthotopic breast tumors; test: BIKDD gene therapy model: orthotopic Hs578T tumors, intratumoral VISA-BIKDD plus STF-083010; type: in vivo, nude mice
Description: as §5

| Compound | expression of ASB11 mRNA (ASB11 mRNA) | ASB11 protein expression (ASB11) | BIK protein level (BIK [1]) | ubiquitination of endogenous BIK (BIK [2]) | turnover of endogenous BIK (BIK [3]) | interaction of p97 with ubiquitinated BIK (p97 / ubiquitinated BIK) | apoptosis induction (293T cells) | BIKDD levels (BIKDD) | killing of TNBC cells in combination with BIKDD ([4]; CMV-BIKDD transfected Hs578T, MDA-MB157, MDA-MB468, FIG. 7a) | killing effect of co-administration with VISA-BIKDD ([4]; VISA-BIKDD transfected TNBC cells, FIG. 7c) | level of cleaved PARP, combinatory treatment (cleaved PARP) | tumor growth, combined treatment with BIKDD ([5]; BIKDD-expressing Hs578T cells plus STF-083010 40 mg/kg i.p. every 3 days, FIG. 7d) | body weights of mice ([5]; BIKDD-expressing cell model) | tumor growth, agent alone ([5]; BIKDD-expressing cells or STF-083010 40 mg/kg i.p. every 3 days, alone, FIG. 7d) | anti-tumor effect of combined administration compared to BIKDD alone ([6]; VISA-BIKDD 0.75 mg/kg intratumoral every 7 days plus STF-083010 40 mg/kg i.p. every 3-4 days, FIG. 7e) | body weights of mice ([6]; VISA-BIKDD gene therapy model) |
| --- | --- | --- | --- | --- | --- | --- | --- | --- | --- | --- | --- | --- | --- | --- | --- | --- |
| tunicamycin | upregulated | elevated | reduced | increased | increased | increased | did not show sign of apoptosis induction | – | – | – | – | – | – | – | – | – |
| O=S(=O)(N=Cc1c(O)ccc2ccccc12)c1cccs1 [STF-083010, N-[(2-Hydroxy-1-naphthalenyl)methylene]-2-thiophenesulfonamide] | – | – | – | – | – | – | – | elevated | synergized | synergistic | increased | greatly suppressed | not altered | modest reduction | significant enhancement | not altered |

— patent US20200215153A1, “CANCER TREATMENT AND/OR PREVENTION THROUGH REGULATION OF UBIQUITINATION” (Academia Sinica, priority 2018, published 2020)
